Target: T1, TRPM4 channels (Homo sapiens, UniProt Q8TD43)
T1 construct: expressed in transfected cells; host or cells: CHO
Test: TRP Family FLIPR Assay, TRPM4
Assay type: cell-based
Conditions: CHO cells
Protocol: The compound of Example 5 was tested for selectivity against a panel of Human TRP family ion channels in a TRP Family FLIPR Assay as described below. • 1. TRPC3 channels (human TRPC3 variant 1 gene, expressed in HEK293 cells). • 2. TRPC4 channels (human TRPC4 gene, expressed in HEK293 cells). • 3. TRPC5 channels (human TRPC5 gene, expressed in HEK293 cells). • 4. TRPC6 channels (human TRPC6 gene, expressed in HEK293 cells). • 5. TRPM2 channels (human TRPM2 gene, transiently expressed in HEK293 cells). • 6. TRPM3 channels (human TRPM3 gene, transiently expressed in HEK293 cells). • 7. TRPM4 channels (human TRPM4 gene, expressed in CHO cells). • 8. […]
Data acquisition was performed via the FLIPR Control software supplied with the FLIPR System (MDS-AT) and data was analyzed using Microsoft Excel (Microsoft Corp., Redmond, WA) or GraphPad Prism. […]
[formula] where Base is the response at low concentrations of test article, Max is the maximum response at high concentrations, xhalf the EC50, or IC50, the concentration of test article producing either half-maximal activation or inhibition, and rate is the Hill coefficient. […] No assumptions about the fit parameters was made; the fit parameters were determined by the algorithm.
The effect of each test article was evaluated at eight (8) concentrations: 0.003, 0.01, 0.03, 0.1, 0.3, 1, 3 and 10 μM, n≤4 wells/concentration). […]

T1 sequence (Q8TD43 whole entry): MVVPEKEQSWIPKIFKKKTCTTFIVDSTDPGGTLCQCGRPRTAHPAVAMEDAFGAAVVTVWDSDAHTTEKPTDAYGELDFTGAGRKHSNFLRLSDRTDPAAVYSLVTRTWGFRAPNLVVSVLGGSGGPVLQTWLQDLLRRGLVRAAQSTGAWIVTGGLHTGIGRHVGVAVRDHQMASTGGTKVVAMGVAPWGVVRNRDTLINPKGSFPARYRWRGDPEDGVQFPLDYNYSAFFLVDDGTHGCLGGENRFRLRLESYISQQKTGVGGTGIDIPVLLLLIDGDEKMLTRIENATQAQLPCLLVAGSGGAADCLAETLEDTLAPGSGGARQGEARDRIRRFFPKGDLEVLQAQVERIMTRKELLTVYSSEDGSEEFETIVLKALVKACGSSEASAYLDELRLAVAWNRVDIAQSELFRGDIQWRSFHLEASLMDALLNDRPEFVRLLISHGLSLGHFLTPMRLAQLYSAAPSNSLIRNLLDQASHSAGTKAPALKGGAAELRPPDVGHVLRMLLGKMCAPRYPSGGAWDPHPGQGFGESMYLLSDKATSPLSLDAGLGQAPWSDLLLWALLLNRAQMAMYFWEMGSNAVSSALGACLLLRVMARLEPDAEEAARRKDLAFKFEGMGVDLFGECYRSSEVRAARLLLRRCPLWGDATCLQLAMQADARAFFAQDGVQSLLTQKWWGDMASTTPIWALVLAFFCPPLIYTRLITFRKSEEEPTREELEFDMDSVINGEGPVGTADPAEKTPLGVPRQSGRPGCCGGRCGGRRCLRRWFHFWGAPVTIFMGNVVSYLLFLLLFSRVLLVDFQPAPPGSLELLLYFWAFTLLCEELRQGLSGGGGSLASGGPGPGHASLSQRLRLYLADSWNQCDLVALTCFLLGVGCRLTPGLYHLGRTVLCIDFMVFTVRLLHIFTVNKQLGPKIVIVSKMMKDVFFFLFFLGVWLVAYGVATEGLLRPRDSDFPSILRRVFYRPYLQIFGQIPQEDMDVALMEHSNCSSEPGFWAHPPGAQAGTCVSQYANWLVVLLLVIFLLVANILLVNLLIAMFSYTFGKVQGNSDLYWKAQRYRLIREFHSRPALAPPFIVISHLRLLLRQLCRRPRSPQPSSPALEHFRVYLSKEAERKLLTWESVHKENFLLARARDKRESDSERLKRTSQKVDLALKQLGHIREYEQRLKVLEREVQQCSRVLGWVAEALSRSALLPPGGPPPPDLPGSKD

## CC(C)(O)c1cnc(N2C[C@@]3(CC[C@@H](F)[C@](C)(Cn4cnc5ccc(C#N)cc54)C3)OC2=O)cn1 (single isomer, unassigned) [Example 5]
Agonist mode, vs EMAX of A23187 3.3 μM, read-out: EC50 hTRMP4
  EC50: > 10 µM
Antagonist mode, activated with A23187 10 μM, 0.003-10 μM, read-out: IC50 hTRMP4
  IC50: > 10 µM
